From patent US20150141381A1, “TETRACYCLINE COMPOUNDS HAVING TARGET THERAPEUTIC ACTIVITIES” (Paratek Pharmaceuticals, Inc., priority 2001, published 2015)
Read-outs that look alike come from different tables or passages of the source.

What was measured:
E. coli mL308 225 = experiment: In Vitro Anti-Bacterial Activity Assay (MIC), gram negative; type: cell-based; settings: Escherichia coli, ML308225, 18 h
S. aureus RN450 = experiment: In Vitro Anti-Bacterial Activity Assay (MIC), gram positive; type: cell-based; settings: Staphylococcus aureus, RN450, 18 h
[1] = MIC class, Table 3 (Continued), read-out: Gram− activity
[2] = MIC class, Table 3 (Continued), read-out: Gram+ activity
[3] = gram negative bacteria, read-out: Antibiotic Activity Gram − (MIC)
[4] = gram positive bacteria, read-out: Antibiotic Activity Gram + (MIC)
[5] = MIC class, Table 3, read-out: Antibiotic Activity Gram −
[6] = MIC class, Table 3, read-out: Antibiotic Activity Gram +
[7] = read-out: Antibiotic Activity Gram −
[8] = read-out: Antibiotic Activity Gram +

| SMILES | MIC (E. coli mL308 225; [3]) [µg/mL] | MIC (S. aureus RN450; [4]) [µg/mL] | MIC (E. coli mL308 225; [5]) [µg/mL] | MIC (S. aureus RN450; [6]) [µg/mL] | also measured |
| --- | --- | --- | --- | --- | --- |
| CC1c2c(-c3ccc(Cl)cc3)ccc(O)c2C(=O)C2=C(O)[C@]3(O)C(=O)C(C(N)=O)=C(O)[C@@H](N(C)C)[C@@H]3[C@@H](O)[C@@H]21 (stereo partly shown) |  |  |  |  | MIC (E. coli mL308 225; [1]): < 4 µg/mL; MIC (S. aureus RN450; [2]): < 4 µg/mL |
| C[C@H]1c2c(Br)ccc(O)c2C(=O)C2=C(O)[C@]3(O)C(=O)C(C(N)=O)=C(O)[C@@H](N(C)C)[C@@H]3[C@@H](O)[C@@H]21 | > 4 | > 4 |  |  |  |
| CCOc1ccc(-c2ccc(O)c3c2C[C@H]2C[C@H]4C(N(C)C)C(O)=C(C(N)=O)C(=O)[C@@]4(O)C(O)=C2C3=O)cc1CNC(=O)C(F)(F)F (stereo partly shown) [HS] |  |  | > 4 | < 4 |  |
| CC(=O)O[C@H]1[C@H]2C(=C(O)[C@]3(O)C(=O)C(C(N)=O)=C(O)[C@@H](N(C)C)[C@H]13)C(=O)c1c(ccc(CN3CCC(C(F)(F)F)CC3)c1O)[C@@H]2C | < 4 | < 4 |  |  |  |
| O=c1cc(-c2ccc(F)cc2)oc2ccccc12 | < 4 | < 4 |  |  |  |
| CCC(=O)Nc1ccc2c(c1O)C(=O)C1=C(O)[C@]3(O)C(=O)C(C(N)=O)=C(O)[C@@H](N(C)C)[C@@H]3C[C@@H]1C2 | < 4 | < 4 |  |  |  |
| CN(C)Cc1ccc(-c2ccc(O)c3c2C[C@H]2C[C@H]4[C@H](N(C)C)C(O)=C(C(N)=O)C(=O)[C@@]4(O)C(O)=C2C3=O)o1 [HL] |  |  | < 4 | < 4 |  |
| CCOC(=O)COC1=C(C(N)=O)C(=O)[C@@]2(O)C(O)=C3C(=O)c4c(O)ccc(I)c4C[C@H]3C[C@H]2[C@@H]1N(C)C [OY] |  |  | > 4 | < 4 |  |
| CCCCN(CCCC)Cc1cc(N(C)C)c2c(c1O)C(=O)C1=C(O)[C@]3(O)C(=O)C(C(N)=O)=C(O)C(N(C)C)[C@@H]3C[C@@H]1C2 (stereo partly shown) [EZ] |  |  | > 4 | < 4 |  |
| CN(C)[C@@H]1C(O)=C(C(N)=O)C(=O)[C@@]2(O)C(O)=C3C(=O)c4c(O)ccc(-c5cc(F)cc(F)c5)c4C[C@H]3C[C@@H]12 | < 4 | < 4 |  |  |  |
| CN(C)[C@@H]1C(O)=C(C(N)=O)C(=O)[C@@]2(O)C(O)=C3C(=O)c4c(O)ccc(C=CC#N)c4C[C@H]3C[C@@H]12 [NO] |  |  | < 4 | < 4 |  |
| CN(C)c1cc(CNC(=O)Oc2ccccc2)c(O)c2c1C[C@H]1C[C@H]3[C@H](N(C)C)C(O)=C(C(N)=O)C(=O)[C@@]3(O)C(O)=C1C2=O [EP] |  |  |  |  | MIC (E. coli mL308 225; [7]): > 4 µg/mL; MIC (S. aureus RN450; [8]): < 4 µg/mL |
| CCC(=O)O[C@@H]1[C@H]2[C@H](N(C)C)C(O)=C(C(N)=O)C(=O)[C@@]2(O)C(O)=C2C(=O)c3c(O)cccc3C(C)[C@H]21 (stereo partly shown) |  |  |  |  | MIC (E. coli mL308 225; [1]): > 4 µg/mL; MIC (S. aureus RN450; [2]): > 4 µg/mL |
| CN(C)c1cc(CNCC(C)(C)C)c(O)c2c1C[C@H]1C[C@H]3[C@H](N(C)C)C(O)=C(C(N)=O)C(=O)[C@@]3(O)C(O)=C1C2=O [drawing 3433] | > 4 | < 4 |  |  |  |
| CN(C)c1ccc(O)c2c1C[C@H]1C[C@H]3[C@H](N(C)C)C(O)=C(C(=O)NCNC(=O)CCl)C(=O)[C@@]3(O)C(O)=C1C2=O [DN] |  |  | > 4 | < 4 |  |
| CC(=O)O[C@@H]1[C@H]2[C@H](N(C)C)C(O)=C(C(N)=O)C(=O)[C@@]2(O)C(O)=C2C(=O)c3c(O)cccc3C(C)[C@H]21 (stereo partly shown) |  |  |  |  | MIC (E. coli mL308 225; [1]): < 4 µg/mL; MIC (S. aureus RN450; [2]): < 4 µg/mL |
| CN(C)c1cc(CNCC2CCCCC2)c(O)c2c1C[C@H]1C[C@H]3[C@H](N(C)C)C(O)=C(C(N)=O)C(=O)[C@@]3(O)C(O)=C1C2=O [MK] |  |  | < 4 | < 4 |  |
| Cc1cc(-c2ccccn2)c2c(c1O)C(=O)C1=C(O)[C@]3(O)C(=O)C(C(N)=O)=C(O)[C@@H](N(C)C)[C@@H]3C[C@@H]1C2 | > 4 | < 4 |  |  |  |
| CCc1cc(CN)c(O)c2c1C[C@H]1C[C@H]3[C@H](N(C)C)C(O)=C(C(N)=O)C(=O)[C@@]3(O)C(O)=C1C2=O [CT] |  |  | < 4 | > 4 |  |
| CN(C)[C@@H]1C(O)=C(C(N)=O)C(=O)[C@@]2(O)C(O)=C3C(=O)c4c(O)ccc(CC(Cl)C5=CCCCC5)c4C[C@H]3C[C@@H]12 (stereo partly shown) |  |  |  |  | MIC (E. coli mL308 225; [1]): < 4 µg/mL; MIC (S. aureus RN450; [2]): < 4 µg/mL |
| CC#Cc1cc(C#CC)c2c(c1O)C(=O)C1=C(O)[C@]3(O)C(=O)C(C(N)=O)=C(O)[C@@H](N(C)C)[C@@H]3C[C@@H]1C2 | > 4 | > 4 |  |  |  |

| SMILES | MIC (E. coli mL308 225; [3]) [µg/mL] | MIC (S. aureus RN450; [4]) [µg/mL] | MIC (E. coli mL308 225; [5]) [µg/mL] | MIC (S. aureus RN450; [6]) [µg/mL] | also measured |
| --- | --- | --- | --- | --- | --- |
| COC(CN(Cc1ccc(O)c2c1C[C@H]1C[C@H]3[C@@H](N(C)C)C(O)=C(C(N)=O)C(=O)[C@@]3(O)C(O)=C1C2=O)CC(OC)OC)OC [KD] |  |  | > 4 | < 4 |  |
| Cc1ccc(/C=C/c2ccc(O)c3c2C[C@H]2C[C@H]4[C@H](N(C)C)C(O)=C(C(N)=O)C(=O)[C@@]4(O)C(O)=C2C3=O)cc1 [drawing 3345] | < 4 | < 4 |  |  |  |
| Cc1ccc(-c2ccc(O)c3c2C[C@H]2C[C@H]4[C@H](N(C)C)C(O)=C(C(N)=O)C(=O)[C@@]4(O)C(O)=C2C3=O)cc1N | < 4 | < 4 |  |  |  |
| CCc1cc(CNC(=O)CN(C)C)c(O)c2c1C[C@H]1C[C@H]3[C@@H](N(C)C)C(O)=C(C(N)=O)C(=O)[C@@]3(O)C(O)=C1C2=O [JL] |  |  | > 4 | < 4 |  |
| CN(C)[C@@H]1C(O)=C(C(N)=O)C(=O)[C@@]2(O)C(O)=C3C(=O)c4c(O)ccc(-c5ccncc5)c4C[C@H]3C[C@@H]12 | < 4 | < 4 |  |  |  |
| CN(C)c1cc(CNC(=O)c2ccno2)c(O)c2c1C[C@H]1C[C@H]3C(N(C)C)C(O)=C(C(N)=O)C(=O)[C@@]3(O)C(O)=C1C2=O (stereo partly shown) [MB] |  |  | > 4 | < 4 |  |
| COc1cccc(C/C=C\c2ccc(O)c3c2C[C@H]2C[C@H]4[C@H](N(C)C)C(O)=C(C(N)=O)C(=O)[C@@]4(O)C(O)=C2C3=O)c1O | < 4 | < 4 |  |  |  |
| CN(C)c1cc(CN2CCCCC2)c(O)c2c1C[C@H]1C[C@H]3[C@H](N(C)C)C(O)=C(C(N)=O)C(=O)[C@@]3(O)C(O)=C1C2=O | < 4 | < 4 |  |  |  |
| CN(C)c1cc(CNC(=O)Oc2ccc(Br)cc2)c(O)c2c1C[C@H]1C[C@H]3[C@H](N(C)C)C(O)=C(C(N)=O)C(=O)[C@@]3(O)C(O)=C1C2=O [FH] |  |  |  |  | MIC (E. coli mL308 225; [7]): > 4 µg/mL; MIC (S. aureus RN450; [8]): < 4 µg/mL |
| CN(C)[C@@H]1C(O)=C(C(N)=O)C(=O)[C@@]2(O)C(O)=C3C(=O)c4c(O)c(C(C)(C)C)cc(-c5ccc6c(c5)OCO6)c4C[C@H]3C[C@@H]12 | > 4 | > 4 |  |  |  |
| CN(C)[C@@H]1C(O)=C(C(N)=O)C(=O)[C@@]2(O)C(O)=C3C(=O)c4c(O)ccc(/C=C(\Cl)CO)c4C[C@H]3C[C@@H]12 |  |  |  |  | MIC (E. coli mL308 225; [1]): > 4 µg/mL; MIC (S. aureus RN450; [2]): < 4 µg/mL |
| CN(C)[C@@H]1C(OCc2ccccc2)=C(C(N)=O)C(=O)[C@@]2(O)C(O)=C3C(=O)c4c(O)ccc(I)c4C[C@H]3C[C@@H]12 | < 4 | < 4 |  |  |  |
| Cc1cc(C(C)(C)C)c(O)c2c1C[C@H]1C[C@H]3[C@H](N(C)C)C(O)=C(C(N)=O)C(=O)[C@@]3(O)C(O)=C1C2=O | > 4 | < 4 |  |  |  |
| CN(C)c1cc(NC2CCN(Cc3ccccc3)CC2)c(O)c2c1C[C@H]1C[C@H]3[C@H](N(C)C)C(O)=C(C(N)=O)C(=O)[C@@]3(O)C(O)=C1C2=O [KM] |  |  | > 4 | > 4 |  |
| CN1CCC(Nc2ccc3c(c2O)C(=O)C2=C(O)[C@]4(O)C(=O)C(C(N)=O)=C(O)[C@@H](N(C)C)[C@@H]4C[C@@H]2C3)CC1 | > 4 | < 4 |  |  |  |
| CONCc1cc(CNCC(C)(C)C)c(O)c2c1C[C@H]1C[C@H]3[C@H](N(C)C)C(O)=C(C(N)=O)C(=O)[C@@]3(O)C(O)=C1C2=O | > 4 | < 4 |  |  |  |
| CN(C)[C@@H]1C(O)=C(C(N)=O)C(=O)[C@@]2(O)C(O)=C3C(=O)c4c(O)c(C(C)(C)C)cc(-c5cnc6ccccc6c5)c4C[C@H]3C[C@@H]12 | > 4 | > 4 |  |  |  |
| COC(=O)C(CC(C)C)NCc1ccc(OC)c(-c2ccc(O)c3c2C[C@H]2C[C@H]4[C@H](N(C)C)C(O)=C(C(N)=O)C(=O)[C@@]4(O)C(O)=C2C3=O)c1 (stereo partly shown) [FY] |  |  | > 4 | < 4 |  |
| C=C(Cl)c1cc(C(C)(C)C)c(O)c2c1C[C@H]1C[C@H]3[C@H](N(C)C)C(O)=C(C(N)=O)C(=O)[C@@]3(O)C(O)=C1C2=O | < 4 | < 4 |  |  |  |
| NC(=O)C1=C(O)C[C@@H]2C[C@@H]3Cc4ccc(CN5CCCCC5)c(O)c4C(=O)C3=C(O)[C@]2(O)C1=O | > 4 | > 4 |  |  |  |
